Experimental data as given in the NIST ThermoML archive (doi:10.1021/je200811n).

Details: Hot wire method

F/C=C/C(F)(F)F [trans-1,3,3,3-tetrafluoropropene]
Details | thermal conductivity [W/m/K]
322.82 K, 587 kPa, Gas | 0.01562
322.86 K, 21602 kPa, Liquid | 0.08015
322.89 K, 858 kPa, Gas | 0.01585
322.9 K, 15321 kPa, Liquid | 0.07653
322.91 K, 884 kPa, Gas | 0.01588
322.91 K, 5442 kPa, Liquid | 0.06937
322.93 K, 431 kPa, Gas | 0.01557
322.94 K, 5376 kPa, Liquid | 0.06973
322.99 K, 96 kPa, Gas | 0.01599
323 K, 710 kPa, Gas | 0.01574
323.07 K, 301 kPa, Gas | 0.01559
323.18 K, 586 kPa, Gas | 0.01563
323.19 K, 193 kPa, Gas | 0.01574
323.23 K, 856 kPa, Gas | 0.01588
323.26 K, 882 kPa, Gas | 0.01587
323.3 K, 430 kPa, Gas | 0.01563
323.36 K, 707 kPa, Gas | 0.01574
323.41 K, 96 kPa, Gas | 0.0162
323.46 K, 301 kPa, Gas | 0.01566
323.55 K, 585 kPa, Gas | 0.01566
323.61 K, 193 kPa, Gas | 0.01581
323.71 K, 429 kPa, Gas | 0.01566
323.86 K, 96 kPa, Gas | 0.01599
323.88 K, 301 kPa, Gas | 0.01569
324.05 K, 193 kPa, Gas | 0.01583
324.33 K, 96 kPa, Gas | 0.01609
331.18 K, 96 kPa, Gas | 0.01637
331.19 K, 198 kPa, Gas | 0.01658
331.21 K, 298 kPa, Gas | 0.01665
331.4 K, 96 kPa, Gas | 0.0162
331.42 K, 198 kPa, Gas | 0.01638
331.43 K, 298 kPa, Gas | 0.01653
331.64 K, 96 kPa, Gas | 0.01611
331.65 K, 197 kPa, Gas | 0.01629
331.67 K, 298 kPa, Gas | 0.0164
331.9 K, 96 kPa, Gas | 0.01602
331.9 K, 298 kPa, Gas | 0.01635
331.91 K, 197 kPa, Gas | 0.01618
332.16 K, 298 kPa, Gas | 0.01629
332.17 K, 198 kPa, Gas | 0.01612
332.17 K, 1166 kPa, Gas | 0.01695
332.18 K, 1084 kPa, Gas | 0.01688
332.3 K, 442 kPa, Gas | 0.01671
332.33 K, 813 kPa, Gas | 0.0168
332.38 K, 585 kPa, Gas | 0.01673
332.42 K, 298 kPa, Gas | 0.01634
332.43 K, 600 kPa, Gas | 0.0167
332.46 K, 434 kPa, Gas | 0.01674
332.46 K, 1166 kPa, Gas | 0.01705
332.47 K, 1082 kPa, Gas | 0.01688
332.52 K, 198 kPa, Gas | 0.0166
332.63 K, 813 kPa, Gas | 0.01684
332.65 K, 442 kPa, Gas | 0.01674
332.7 K, 96 kPa, Gas | 0.01695
332.71 K, 584 kPa, Gas | 0.0167
332.75 K, 598 kPa, Gas | 0.01664
332.76 K, 1166 kPa, Gas | 0.01708
332.79 K, 1079 kPa, Gas | 0.01686
332.8 K, 434 kPa, Gas | 0.01674
332.9 K, 198 kPa, Gas | 0.01664
332.91 K, 871 kPa, Gas | 0.01664
332.97 K, 813 kPa, Gas | 0.01681
333.01 K, 444 kPa, Gas | 0.01648
333.08 K, 1166 kPa, Gas | 0.01705
333.11 K, 1077 kPa, Gas | 0.0169
333.13 K, 96 kPa, Gas | 0.017
333.26 K, 868 kPa, Gas | 0.01661
333.31 K, 198 kPa, Gas | 0.01672
333.42 K, 1165 kPa, Gas | 0.01702
333.46 K, 1075 kPa, Gas | 0.01692
333.56 K, 96 kPa, Gas | 0.01706
333.6 K, 298 kPa, Gas | 0.01659
333.74 K, 197 kPa, Gas | 0.01673
333.82 K, 441 kPa, Gas | 0.01653
333.98 K, 435 kPa, Gas | 0.01662
334.02 K, 96 kPa, Gas | 0.01704
334.02 K, 298 kPa, Gas | 0.01661
334.19 K, 197 kPa, Gas | 0.01672
334.51 K, 96 kPa, Gas | 0.01712
340.58 K, 3036 kPa, Liquid | 0.06257
340.6 K, 1565 kPa, Liquid | 0.06077
340.63 K, 3034 kPa, Liquid | 0.06242
340.65 K, 1563 kPa, Liquid | 0.06068
340.7 K, 96 kPa, Gas | 0.01742
340.73 K, 194 kPa, Gas | 0.01765
340.73 K, 5177 kPa, Liquid | 0.06477
340.75 K, 8139 kPa, Liquid | 0.06735
340.75 K, 8199 kPa, Liquid | 0.06725
340.78 K, 5176 kPa, Liquid | 0.06447
340.8 K, 8202 kPa, Liquid | 0.06713
340.82 K, 3032 kPa, Liquid | 0.06247
340.86 K, 1561 kPa, Liquid | 0.06064
340.88 K, 3031 kPa, Liquid | 0.06222
340.92 K, 97 kPa, Gas | 0.01718
340.92 K, 1560 kPa, Liquid | 0.06043
340.94 K, 194 kPa, Gas | 0.0174
341.03 K, 8138 kPa, Liquid | 0.06739
341.04 K, 20095 kPa, Liquid | 0.07528
341.06 K, 16393 kPa, Liquid | 0.07294
341.07 K, 5175 kPa, Liquid | 0.06447
341.08 K, 8204 kPa, Liquid | 0.06709
341.09 K, 3029 kPa, Liquid | 0.06217
341.09 K, 21968 kPa, Liquid | 0.07668
341.1 K, 8133 kPa, Liquid | 0.06713
341.1 K, 12136 kPa, Liquid | 0.07037
341.1 K, 20086 kPa, Liquid | 0.07523
341.12 K, 16392 kPa, Liquid | 0.07302
341.13 K, 1563 kPa, Liquid | 0.06043
341.14 K, 96 kPa, Gas | 0.01698
341.15 K, 5174 kPa, Liquid | 0.06431
341.15 K, 21974 kPa, Liquid | 0.07662
341.16 K, 194 kPa, Gas | 0.01722

Liquid
Details | thermal conductivity [W/m/K]
323.15 K | 0.06606
333.15 K | 0.06293
